Assay results: patent US20160084855A1, “Compositions and Methods for Modulation and Detection of Immune and Inflammatory Responses” (UNIVERSITY OF CONNECTICUT, priority 2013, published 2016)
Several values for one entry are separate records, joined by “and”; a condition that tells them apart may be missing. Equal entries are not always repeated.

What was measured:
[1] = system: spinal cord CD4+ and Foxp3+ T cells; experiment: Flow cytometry of spinal cord mononuclear cells of mice with EAE; assay type: in vivo, mouse
From the text: Spinal cord mononuclear cells were derived as previously described in Korn et al. “Myelin-specific regulatory T cells accumulate in the CNS but fail to control autoimmune inflammation” Nat. Med. 13:423-431 (2007) and stained for CD4 (FITC α-CD4 (GK1.5) BD Pharmingen) and Foxp3 (APC α-FoxP3 (FJK-16s; E-Bioscience), or stimulated in culture for 4 hrs with phorbol myristyl acetate and ionomycin prior to staining for Thy1.2 (PE-Cy7 anti-CD 90.2; E-Biosciences) and intracellular IFNγ (APC αIFNγ; BD Pharmingen) and IL-17 (Alexa Fluor 488 α-IL-17A; BD Pharmingen).
To characterize mechanisms by which PE DHC may enhance autoimmune disease in vivo, the experimental studies tested whether the PE DHC-mediated enhancement of EAE was associated with alterations in T cell populations at a site of disease. WT mice were immunized with the usual EAE-inducing protocol and treated on Day 0 with EtOH or PE DHC (250 ng i.p.). Within 5 days after onset of EAE, mice were sacrificed and exsanguinated, their spinal cords were removed, and the mononuclear cells were derived from the spinal cords. These cells were analyzed directly for CD4 and Foxp3 expression by flow cytometry or were stimulated with PMA and ionomycin for 4 hours and then, gating on Thy1.2+ cells, analyzed for intra-cellular interferon gamma (IFNγ) and IL-17 by flow cytometry. […] However, the percentage of CD4+ T cells within the total mononuclear cell populations derived from the spinal cords of PE DHC-treated mice was, on average, greater than the percentage in EtOH-treated mice (as illustrated in Table 2). […] The mean percentage of spinal cord cells that were CD4+ was 41% in EtOH-treated mice and, on average, 6.7% of these were Foxp3+. In contrast, the mean percentage of spinal cord cells that were CD4+ T cells was 52% in PE DHC-treated mice and, on average, 4.3% of these were Foxp3+. It has been reported in Korn et al. “Myelin-specific regulatory T cells accumulate in the CNS but fail to control autoimmune inflammation” Nat. Med. 13:423-431 (2007) that the percentage of spinal cord CD4+ Foxp3+ T cells increased as the disease progressed. […] Based on this observation, it was unlikely that the decrease in the percentage of Foxp3+ in PE-DHC-treated mice was related to differences in disease duration.

[2] = system: C57BL/6 (WT), TLR2−/−, IL-15−/− and IL-15Rα−/− mice with EAE; experiment: EAE induced with MOG35-55 in CFA plus pertussis toxin; clinical grading; assay type: in vivo, mouse; conditions: for Mean Day of Onset of EAE / Mean Maximum Severity of EAE / Mean Incidence of disease: PE DHC; for Mean Maximum Severity of EAE: 20-day observation; for MDD (Mean Daily Disease) / CDI (cumulative disease index): PE DHC 250 ng single i.p. Day 0; for MDD (Mean Daily Disease): 20 days; for CDI (cumulative disease index): through Day 20
Description: […]. In addition, mice were injected intraperitoneally (i.p.) on Day 0 with either P. gingivalis lipid or the vehicle control, 70% ethanol (EtOH). EAE was scored as: Grade 1-tail paralysis; Grade 2-weakness of hind limbs with an altered gait; Grade 3-hind limb paralysis; Grade 4-front limb paralysis; Grade 5-death.
For treatment of mice, preweighed lipids were dissolved in 70% ethanol to achieve a final concentration of 125 ng/μl, and sonicated for 2.5 minutes immediately before injection into experimental animals. This preparation was also used for drying lipids onto tissue culture wells. For direct addition to cell cultures, the lipids were dissolved in culture medium at 125 ng/μl and sonicated for 2.5 minutes to produce a liposome preparation for administration to cells in culture.
The cumulative disease index (CDI) was obtained by summing the daily average disease scores through Day 20. A mean of these daily disease scores (Mean Daily Disease) (+/−SEM) was calculated based on the 20 days of observation. The Mean Daily Disease scores were compared using the Wilcoxin Signed Rank tests for two samples. Disease incidence frequencies were compared using Chi square analysis. Values for mean maximum severity of EAE were compared using the Wilcoxin Signed Rank test. Values for mean day of onset of EAE were compared using the Student's t-test. For analysis of spinal cord populations, percentages were compared using Student's t test. Bacterial fatty acid levels in brain lipid extracts for each treatment group were evaluated using least squares linear regression analysis that included calculation of correlation coefficients. For each dose of bacterial lipid administered, linear regression analysis compared the final EAE score with the mean bacterial fatty acid recovered per 0.5 mg of brain lipid extract. The mean bacterial fatty acid levels were calculated from three replicate brain lipid determinations.
EAE was induced in female C57BL/6 (WT) mice and these mice were also injected i.p. on Day 0 with either P. gingivalis lipids or the vehicle control, 70% ethanol (EtOH). To most effectively detect effects of P. gingivalis lipids in the development of autoimmunity, less severe EAE was induced by using CFA with […] concentrations of H37RA mycobacteria (500 μg/mouse). […] Component HPLC fractions of the TL were examined individually. […] FIG. 7 illustrates one representative experiment of six similar studies, in which 250 ng of PE DHC was administered to WT mice.
Mice deficient in either IL-15 (IL-15^−/− mice) or the IL-15 receptor α (IL-15Rα^−/− mice) are known to express very few identifiable NKT cells (Kennedy et al. “Reversible defects in natural killer and memory CD8 T cell lineages in interleukin 15-deficient mice,” J. Exp. Med. 191:771-780 (2000); Lodolce et al. “IL-15 receptor maintains lymphoid homeostasis by supporting lymphocyte homing and proliferation” Immunity 9:669-676 (1998). WT mice and either IL-15^−/− or IL-15Rα^−/− mice (both on a C57BL/6 background) were immunized for EAE and given a single i.p. injection of EtOH or PE DHC on Day 0. […] FIGS. 8 and 9 show representative experiments using IL-15^−/− and IL-15Rα^−/− mice.
TLR-2 deficient (TLR2^−/−) mice were immunized with the standard EAE-inducing MOG protocol and administered a single i.p. injection of either EtOH or PE DHC on Day 0.

[3] = IL-15Rα−/− mice that developed EAE
[4] = IL-15−/− mice that developed EAE
[5] = TLR2−/− mice that developed EAE
[6] = Wild Type mice that developed EAE

## phosphoethanolamine dihydroceramide [PE DHC]
[1]; WT mice, PE DHC 250 ng i.p.
  Total number of mononuclear cells obtained from the spinal cords, versus EtOH: no significant difference
[1]; WT mice, PE DHC 250 ng i.p., PMA and ionomycin 4 hours
  Percentages of spinal cord CD4+ T cells staining for intra-cellular IFNγ or IL-17, versus EtOH: not significantly different
[1]; individual WT mice at sacrifice, PE DHC 250 ng i.p. Day 0
  DISEASE GRADE: 3.3 (2×) and 3.5 and 2.9 (2×) and 3.0
[1]; individual WT mice, PE DHC 250 ng i.p. Day 0, 1-5 days after onset of EAE, of total mononuclear cells
  % CD4+ in spinal cord: 72.00% and 38.00% and 68.86% and 49.54% and 40.83% and 46.50%
[1]; individual WT mice, PE DHC 250 ng i.p. Day 0, after gating on CD4+ T cells
  % Foxp3+ in spinal cord: 4.53% and 7.52% and 2.75% and 3.45% and 3.21% and 4.27%
[2]; [3]
  Mean Day of Onset of EAE: 13.8 days
  Mean Maximum Severity of EAE: 2.9
[2]; IL-15Rα−/− mice
  Mean Incidence of disease: 100%
  MDD (Mean Daily Disease): 0.9
  CDI (cumulative disease index): 18.7
[2]; IL-15−/− and IL-15Rα−/− mice
  CDI and mean daily disease compared with EtOH-treated mice: greater than a doubling
[2]; IL-15−/− and IL-15Rα−/− mice, single i.p. injection Day 0
  Effect on EAE: significantly enhanced EAE
[2]; [4]
  Mean Day of Onset of EAE: 13.0 days
  Mean Maximum Severity of EAE: 3.7
[2]; IL-15−/− mice
  Mean Incidence of disease: 90%
  MDD (Mean Daily Disease): 1.2
  CDI (cumulative disease index): 24.5
[2]; [5]
  Mean Day of Onset of EAE: 14.7 days
  Mean Maximum Severity of EAE: 2.9
[2]; TLR2−/− mice
  Mean Incidence of disease: 46.6%
  MDD (Mean Daily Disease): 0.4
  CDI (cumulative disease index): 8.3
[2]; TLR2−/− mice, single i.p. injection Day 0
  Effect on CDI and mean daily disease: did not mediate enhancement of CDI or mean daily disease
[2]; WT mice, 250 ng, cumulative results of six experiments
  CDI and mean daily disease compared with EtOH-treated mice: essentially a doubling
[2]; WT mice, 2.5 μg, 250 ng and 25 ng, 250 ng most efficient
  Effect on EAE disease: led to enhanced disease
[2]; WT mice, p=0.008
  Onset of disease compared to EtOH-treated mice: significantly earlier onset of disease
[2]; WT mice, single 250 ng i.p. injection on Day 0
  Effect on severity of EAE: consistently enhanced the severity of EAE
[2]; [6]
  Mean Day of Onset of EAE: 12.1 days
  Mean Maximum Severity of EAE: 3.6
[2]; Wild Type mice
  Mean Incidence of disease: 75%
  MDD (Mean Daily Disease): 1.0
  CDI (cumulative disease index): 19.8
